Data from ChEMBL document CHEMBL4177616, “Potent anti-melanogenic activity and favorable toxicity profile of selected 4-phenyl hydroxycoumarins in the zebrafish model and the computational molecular modeling studies” (Bioorg Med Chem, 2017).
Calls of active or inactive are those of the source. No cut-off for these calls is given here.

Key:
Neutrophil = experiment: Cytotoxicity against […] transgenic zebrafish 24 hrs post fertilization embryo neutrophils assessed as reduction in neutrophil at 25 ug/ml treated for 72 hrs post fertilization starting from 6 to 24 hrs post fertilization; type: cell-based, Danio rerio
Melanocyte [1] = experiment: Anti-melanogenic activity in wild type zebrafish embryo melanocytes assessed as decrease in pigmentation at 25 ug/ml treated for 72 hrs post fertilization starting from 6 to 24 hrs post fertilization; type: functional, cell-based; conditions: Danio rerio
Melanocyte [2] = experiment: Cytotoxicity against wild type zebrafish embryo melanocytes assessed as change in morphology at to 25 ug/ml treated for 72 hrs post fertilization starting from 6 to 24 hrs post fertilization; type: cell-based, Danio rerio
Melanocyte [3] = experiment: Cytotoxicity against wild type zebrafish embryo melanocytes assessed as number of melanocyte at 25 ug/ml treated for 72 hrs post fertilization starting from 6 to 24 hrs post fertilization; type: cell-based, Danio rerio
Danio rerio [4] = species on record: Danio rerio; experiment: Toxicity in wild type zebrafish embryos assessed as teratogenic embryo at 15 ug/ml treated for 96 hrs post fertilization starting from 6 hrs post fertilization by inverted microscopic analysis relative to control; type: organism-based; conditions: in vivo
Danio rerio [5] = species on record: Danio rerio; experiment: Toxicity in wild type zebrafish embryos assessed as normal embryo at 15 ug/ml treated for 96 hrs post fertilization starting from 6 hrs post fertilization by inverted microscopic analysis relative to control; type: organism-based; conditions: in vivo
Danio rerio [6] = species on record: Danio rerio; experiment: Toxicity in wild type zebrafish embryos assessed as growth retardation at 50 ug/ml treated for 96 hrs post fertilization starting from 6 hrs post fertilization by inverted microscopic analysis relative to control; type: organism-based; conditions: in vivo
Danio rerio [7] = species on record: Danio rerio; experiment: Toxicity in wild type zebrafish embryos assessed as growth retardation at 15 ug/ml treated for 96 hrs post fertilization starting from 6 hrs post fertilization by inverted microscopic analysis relative to control; type: organism-based; conditions: in vivo
Danio rerio [8] = species on record: Danio rerio; experiment: Toxicity in wild type zebrafish embryos assessed as notochord at 15 ug/ml treated for 96 hrs post fertilization starting from 6 hrs post fertilization by inverted microscopic analysis relative to control; type: organism-based; conditions: in vivo
Danio rerio [9] = species on record: Danio rerio; experiment: Toxicity in wild type zebrafish embryos assessed as eyes at 50 ug/ml treated for 96 hrs post fertilization starting from 6 hrs post fertilization by inverted microscopic analysis relative to control; type: organism-based; conditions: in vivo
Danio rerio [10] = species on record: Danio rerio; experiment: Toxicity in wild type zebrafish embryos assessed as eyes at 15 ug/ml treated for 96 hrs post fertilization starting from 6 hrs post fertilization by inverted microscopic analysis relative to control; type: organism-based; conditions: in vivo
Danio rerio [11] = species on record: Danio rerio; experiment: Toxicity in wild type zebrafish embryos assessed as otoliths at 15 ug/ml treated for 96 hrs post fertilization starting from 6 hrs post fertilization by inverted microscopic analysis relative to control; type: organism-based; conditions: in vivo
Danio rerio [12] = experiment: Toxicity in wild type zebrafish embryos assessed as pericardial edema at 50 ug/ml treated for 96 hrs post fertilization starting from 6 hrs post fertilization by inverted microscopic analysis relative to control; type: organism-based; conditions: in vivo
Danio rerio [13] = experiment: Toxicity in wild type zebrafish embryos assessed as pericardial edema at 15 ug/ml treated for 96 hrs post fertilization starting from 6 hrs post fertilization by inverted microscopic analysis relative to control; type: organism-based; conditions: in vivo
Danio rerio [14] = species on record: Danio rerio; experiment: Toxicity in wild type zebrafish embryos assessed as heart beat at 50 ug/ml treated for 96 hrs post fertilization starting from 6 hrs post fertilization by inverted microscopic analysis relative to control; type: organism-based; conditions: in vivo
Danio rerio [15] = species on record: Danio rerio; experiment: Toxicity in wild type zebrafish embryos assessed as unhatched embryo at 50 ug/ml treated for 96 hrs post fertilization starting from 6 hrs post fertilization by inverted microscopic analysis relative to control; type: organism-based; conditions: in vivo
Danio rerio [16] = species on record: Danio rerio; experiment: Toxicity in wild type zebrafish embryos assessed as unhatched embryo at 15 ug/ml treated for 96 hrs post fertilization starting from 6 hrs post fertilization by inverted microscopic analysis relative to control; type: organism-based; conditions: in vivo
Danio rerio [17] = species on record: Danio rerio; experiment: Toxicity in wild type zebrafish embryos assessed as head malformation at 50 ug/ml treated for 96 hrs post fertilization starting from 6 hrs post fertilization by inverted microscopic analysis relative to control; type: organism-based; conditions: in vivo
Danio rerio [18] = species on record: Danio rerio; experiment: Toxicity in wild type zebrafish embryos assessed as head malformation at 20 ug/ml treated for 96 hrs post fertilization starting from 6 hrs post fertilization by inverted microscopic analysis relative to control; type: organism-based; conditions: in vivo
Danio rerio [19] = species on record: Danio rerio; experiment: Toxicity in wild type zebrafish embryos assessed as head malformation at 15 ug/ml treated for 96 hrs post fertilization starting from 6 hrs post fertilization by inverted microscopic analysis relative to control; type: organism-based; conditions: in vivo
Danio rerio [20] = species on record: Danio rerio; experiment: Toxicity in wild type zebrafish embryos assessed as skeletal deformities at 20 ug/ml treated for 96 hrs post fertilization starting from 6 hrs post fertilization by inverted microscopic analysis relative to control; type: organism-based; conditions: in vivo
Danio rerio [21] = species on record: Danio rerio; experiment: Toxicity in wild type zebrafish embryos assessed as skeletal deformities at 15 ug/ml treated for 96 hrs post fertilization starting from 6 hrs post fertilization by inverted microscopic analysis relative to control; type: organism-based; conditions: in vivo
Tyrosinase (Danio rerio) [22] = target: T1, Tyrosinase (Danio rerio) (UniProt A0A8M1PAD4); experiment: Inhibition of zebrafish embryo tyrosinase assessed as residual activity at 15 ug/ml after 48 hrs relative to control
T1 sequence (whole entry): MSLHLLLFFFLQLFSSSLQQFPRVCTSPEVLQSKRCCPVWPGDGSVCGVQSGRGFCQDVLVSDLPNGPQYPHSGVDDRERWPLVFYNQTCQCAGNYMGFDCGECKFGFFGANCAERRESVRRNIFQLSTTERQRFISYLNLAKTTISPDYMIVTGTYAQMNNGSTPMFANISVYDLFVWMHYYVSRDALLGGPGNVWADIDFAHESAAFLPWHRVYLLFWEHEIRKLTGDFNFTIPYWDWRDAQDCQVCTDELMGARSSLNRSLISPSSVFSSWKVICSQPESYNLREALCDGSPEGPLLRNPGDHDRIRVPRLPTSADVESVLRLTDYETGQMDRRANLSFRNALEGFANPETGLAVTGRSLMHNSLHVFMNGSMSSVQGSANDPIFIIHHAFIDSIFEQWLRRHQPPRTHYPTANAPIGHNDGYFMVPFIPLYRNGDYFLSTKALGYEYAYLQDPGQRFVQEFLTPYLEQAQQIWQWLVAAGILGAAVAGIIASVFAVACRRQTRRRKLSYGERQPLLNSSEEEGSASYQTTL

Tyrosinase (Danio rerio) [23] = target: T1, Tyrosinase (Danio rerio); experiment: Inhibition of zebrafish embryo tyrosinase assessed as residual activity at 10 ug/ml after 48 hrs relative to control
Tyrosinase (Danio rerio) [24] = target: T1, Tyrosinase (Danio rerio); experiment: Inhibition of zebrafish embryo tyrosinase assessed as residual activity at 5 ug/ml after 48 hrs relative to control
Tyrosinase = target: T2, Tyrosinase (Danio rerio, UniProt A0A8M1PAD4); experiment: Inhibition of zebrafish embryo tyrosinase assessed as residual activity after 48 hrs
T2 sequence (A0A8M1PAD4 whole entry): T1 sequence (whole entry)

Tyrosinase (Danio rerio) [25] = target: T1, Tyrosinase (Danio rerio); experiment: Potency index, ratio of kojic acid IC50 to compound IC50 for zebrafish embryo tyrosinase assessed as melanin production
Tyrosinase (Danio rerio) [26] = target: T1, Tyrosinase (Danio rerio); experiment: Potency index, ratio of kojic acid IC50 to compound IC50 for zebrafish embryo tyrosinase assessed as residual activity
Tyrosinase (Danio rerio) [27] = target: T1, Tyrosinase (Danio rerio); experiment: Inhibition of zebrafish embryo tyrosinase assessed as melanin production at 5 ug/ml after 48 hrs relative to control; values are per cent of control
Tyrosinase (Danio rerio) [28] = target: T1, Tyrosinase (Danio rerio); experiment: Inhibition of zebrafish embryo tyrosinase assessed as melanin production at 20 ug/ml after 48 hrs relative to control; values are per cent of control
Tyrosinase (Danio rerio) [29] = target: T1, Tyrosinase (Danio rerio); experiment: Inhibition of zebrafish embryo tyrosinase assessed as melanin production at 10 ug/ml after 48 hrs relative to control; values are per cent of control

SMILES	Activity (Neutrophil)	Activity (Melanocyte [1])	Activity (Melanocyte [2])	Activity (Melanocyte [3])	Activity (Danio rerio [4])	Activity (Danio rerio [5])	Activity (Danio rerio [6])	Activity (Danio rerio [7])	Activity (Danio rerio [8])	Activity (Danio rerio [9])	Activity (Danio rerio [10])	Activity (Danio rerio [11])	Activity (Danio rerio [12])	Activity (Danio rerio [13])	Activity (Danio rerio [14])	Activity (Danio rerio [15])	Activity (Danio rerio [16])	Activity (Danio rerio [17])	Activity (Danio rerio [18])	Activity (Danio rerio [19])	also measured
O=c1cc(-c2ccccc2)c2ccc(O)cc2o1	Non-Toxic	Active	Non-Toxic	Non-Toxic	0%	100%	0%	0%	0%	0%	0%	0%	0%	0%	0%	0%	0%	0%	0%	0%	Activity (Danio rerio [20]): 0%; Activity (Danio rerio [21]): 0%; Activity (Tyrosinase (Danio rerio) [22]): 92%; Activity (Tyrosinase (Danio rerio) [23]): 97%; Activity (Tyrosinase (Danio rerio) [24]): 99%; IC50 (Tyrosinase): 205 µM; Ratio IC50 (Tyrosinase (Danio rerio) [25]): 62; Ratio IC50 (Tyrosinase (Danio rerio) [26]): 41; melanin content % of control (Tyrosinase (Danio rerio) [27]): 93%; melanin content % of control (Tyrosinase (Danio rerio) [28]): 61%; melanin content % of control (Tyrosinase (Danio rerio) [29]): 91%
O=c1cc(-c2ccccc2)c2c(O)cc(O)cc2o1	Non-Toxic	Active	Non-Toxic	Non-Toxic	0%	100%	0%	0%	0%	0%	0%	0%	5%	0%	0%	0%	0%	0%	0%	0%	Activity (Danio rerio [20]): 0%; Activity (Danio rerio [21]): 0%; Activity (Tyrosinase (Danio rerio) [22]): 76%; Activity (Tyrosinase (Danio rerio) [23]): 82%; Activity (Tyrosinase (Danio rerio) [24]): 95%; IC50 (Tyrosinase): 90.9 µM; Ratio IC50 (Tyrosinase (Danio rerio) [25]): 147; Ratio IC50 (Tyrosinase (Danio rerio) [26]): 86; melanin content % of control (Tyrosinase (Danio rerio) [27]): 63%; melanin content % of control (Tyrosinase (Danio rerio) [28]): 37%; melanin content % of control (Tyrosinase (Danio rerio) [29]): 48%
